Test results: US20070179121A1, “Method of treating pediatric patients with corticosteroids” (priority 2006, published 2007)

System: HPA-axis
Test: HPA-axis suppression: serum cortisol before and 30 minutes after intravenous cosyntropin stimulation, pediatric atopic dermatitis patients
Assay type: in vivo, human (pediatric patients)
Conditions: for Not suppressed: percent in brackets
Protocol: At the baseline visit, physical examinations were performed, including measurements of height, weight, and vital signs, and female subjects of childbearing potential underwent a urine pregnancy test (UPT). Patients with any significant disease of the hepatic, renal, endocrine, musculoskeletal, or nervous system were excluded. At Screening/Baseline, each qualified patient was assessed for a normally functioning HPA axis. Male or female patients with clinically diagnosed atopic dermatitis, involving ≧20% of the total body surface area (BSA), were randomized to receive either qd (once a day) or bid (twice a day) treatment in 4 sequential cohorts. The “rule of nines” method was used in calculating affected BSA.
Enrollment in the 4 cohorts was as follows: Cohort 1-33 patients, 12 to <18 years of age; Cohort 2-32 patients, 6 to <12 years of age; Cohort 3-30 patients, 2 to […] Cohort 4-31 infants, 3 months to <2 years of age.
Enrollment into each cohort began only after evaluation of the preceding cohort in order to minimize the risk of systemic toxicity to the study subjects. Four observations of HPA-axis suppression in a single treatment group per cohort were considered as evidence of a clinically significant risk.
Patients who met the inclusion/exclusion criteria were randomized to receive topical fluocinonide either qd or bid. Patients/guardians were instructed to apply a thin layer of the study product to all treatable areas once or twice daily for 14 days. If the areas to be treated were hairy, patients/guardians were instructed to part the hair to allow direct contact between the study product and the lesion. Patients/guardians were also instructed not to apply study product to lesions of the face, groin, perianal area, and axillae. At the end of Weeks 1, 2, and 4, patients returned to the study site in order for the investigator to perform designated evaluations, review treatment compliance and concomitant therapy, and to collect information regarding adverse events.
The potential of fluocinonide to suppress the HPA-axis was assessed by determining the rate of incidence of suppression, when suppression was defined as a serum cortisol level ≦18 μg/dL, 30 minutes after intravenous cosyntropin stimulation. For a subject to be evaluable for HPA-axis suppression, the subject must have received at least 2 full weeks of fluocinonide treatment prior to the cosyntropin challenge. Pre-and post-cosyntropin-stimulation blood samples were obtained between 7:30 and 8:30 AM to account for diurnal variation in cortisol levels, at the Baseline and Week 2 visits, as directed in the Cortrosyn® package insert. Cortrosyn® is a drug that stimulates the adrenal gland. […] The dose and administration of cosyntropin followed the labeling of the product. Specifically, the dose for subjects 3 to 17 years of age was 0.25 mg, and the dose for subjects 3 months to 2 years old was 0.125 mg. At the end of the 14-day treatment period, any subject with a post-stimulation cortisol level ≦18 μg/dL was re-tested at Week 4 and once every 4 weeks thereafter until the post-stimulation levels were within normal limits.
Mean post-stimulation cortisol levels measured at Baseline and at Week 2 were compared using a paired t test.

[1] = End of Week 2, Cohort 1 (12-<18 years), bid
[2] = End of Week 2, Cohort 1 (12-<18 years), qd
[3] = End of Week 2, Cohort 2 (6-<12 years), bid
[4] = End of Week 2, Cohort 2 (6-<12 years), qd
[5] = End of Week 2, Cohort 3 (2-<6 years), bid
[6] = End of Week 2, Cohort 3 (2-<6 years), qd
[7] = End of Week 2, Cohort 4 (3 months to <2 year), bid
[8] = End of Week 2, Cohort 4 (3 months to <2 year), qd
[9] = Screening, Cohort 1 (12-<18 years), bid
[10] = Screening, Cohort 1 (12-<18 years), qd
[11] = Screening, Cohort 2 (6-<12 years), bid
[12] = Screening, Cohort 2 (6-<12 years), qd
[13] = Screening, Cohort 3 (2-<6 years), bid
[14] = Screening, Cohort 3 (2-<6 years), qd
[15] = Screening, Cohort 4 (3 months to <2 year), bid
[16] = Screening, Cohort 4 (3 months to <2 year), qd
[17] = patient of Cohort 3 bid, Week 2 (samples suspected reversed)

CC(=O)OCC(=O)[C@@]12OC(C)(C)O[C@@H]1C[C@H]1[C@@H]3C[C@H](F)C4=CC(=O)C=C[C@]4(C)[C@@]3(F)[C@@H](O)C[C@@]12C [Fluocinonide, pregna-1,4-diene-3,20-dione,21-(acetyloxy)-6,9-difluoro-11-hydroxy-16, 17-[(1-methylethylidene)bis(oxy)]-,(6α., 11β,16α)-]
Patients who met the criterion for HPA-axis suppression (Cohort 1, bid, 1 of 15): 6.7% | Patients who met the criterion for HPA-axis suppression (Cohort 2, bid, 2 of 16): 12.5% | Patients who met the criterion for HPA-axis suppression (Cohort 3, bid, Week 2, 1 of 15, samples suspected reversed, not counted as suppression): 6.7% | Subjects who experienced HPA-axis suppression (Cohort 4): None | Cortisol increase in levels, Mean ± SD [1]: 8.6 ± 4.7 µg/dL | Cortisol increase in levels, Range [1]: 1.2 to 17.0 µg/dL | Cortisol pre-stimulation level, Mean ± SD [1]: 17.2 ± 8.3 µg/dL | Cortisol pre-stimulation level, Range [1]: 7.1 to 34.2 µg/dL | Not suppressed [1]: 14 (93.3) N | Cortisol increase in levels, Mean ± SD [2]: 9.3 ± 5.1 µg/dL | Cortisol increase in levels, Range [2]: 3.5 to 22.2 µg/dL | Cortisol pre-stimulation level, Mean ± SD [2]: 17.6 ± 7.6 µg/dL | Cortisol pre-stimulation level, Range [2]: 1.2 to 32.9 µg/dL | Not suppressed [2]: 15 (100) N | Cortisol increase in levels, Mean ± SD [3]: 11.5 ± 5.2 µg/dL | Cortisol increase in levels, Range [3]: -3.5 to 20.3 µg/dL | Cortisol pre-stimulation level, Mean ± SD [3]: 12.3 ± 4.9 µg/dL | Not suppressed [3]: 14 (87.5) N | Cortisol increase in levels, Mean ± SD [4]: 11.0 ± 4.8 µg/dL | Cortisol increase in levels, Range [4]: -2.3 to 17.8 µg/dL | Cortisol pre-stimulation level, Mean ± SD [4]: 13.7 ± 5.6 µg/dL | Cortisol pre-stimulation level, Range [4]: 6.9 to 29.3 µg/dL | Cortisol post-stimulation level, Mean ± SD (End of Week 2, Cohort 2 (6-<12 years), qd, P = 0.015 vs screening): 24.7 ± 3.0 µg/dL | Cortisol post-stimulation level, Mean ± SD (End of Week 2, Cohort 2 (6-<12 years), qd, P = 0.015 vs screening, listed as fluocinonide): 24.7 µg/dL | Not suppressed [4]: 15 (100) N | Cortisol increase in levels, Mean ± SD [5]: 11.0 ± 10.4 µg/dL | Cortisol increase in levels, Range [5]: -19 to 29.1 µg/dL | Cortisol pre-stimulation level, Mean ± SD [5]: 15.0 ± 5.9 µg/dL | Not suppressed [5]: 15 (100) N | Cortisol increase in levels, Mean ± SD [6]: 12.7 ± 4.9 µg/dL | Cortisol increase in levels, Range [6]: 3.1 to 22.0 µg/dL | Cortisol pre-stimulation level, Mean ± SD [6]: 15.4 ± 7.0 µg/dL | Not suppressed [6]: 15 (100) N | Cortisol increase in levels, Mean ± SD [7]: 16.5 ± 6.6 µg/dL | Cortisol increase in levels, Range [7]: 7.0 to 29.7 µg/dL | Cortisol pre-stimulation level, Mean ± SD [7]: 13.0 ± 4.6 µg/dL | Not suppressed [7]: 15 (100) N | Cortisol increase in levels, Mean ± SD [8]: 19.9 ± 7.1 µg/dL | Cortisol increase in levels, Range [8]: 6.4 to 29.9 µg/dL | Cortisol pre-stimulation level, Mean ± SD [8]: 10.4 ± 3.2 µg/dL | Not suppressed [8]: 15 (100) N | Cortisol increase in levels, Mean ± SD [9]: 11.1 ± 3.7 µg/dL | Cortisol increase in levels, Range [9]: 4.3 to 17.4 µg/dL | Cortisol post-stimulation level, Mean ± SD [9]: 26.8 ± 8.0 µg/dL | Cortisol post-stimulation level, Range [9]: 18.3 to 50.4 µg/dL | Cortisol pre-stimulation level, Mean ± SD [9]: 15.7 ± 10.3 µg/dL | Cortisol pre-stimulation level, Range [9]: 0.9 to 42.7 µg/dL | Cortisol increase in levels, Mean ± SD [10]: 9.3 ± 5.2 µg/dL | Cortisol increase in levels, Range [10]: -1.2 to 22.1 µg/dL | Cortisol post-stimulation level, Mean ± SD [10]: 26.4 ± 3.7 µg/dL | Cortisol post-stimulation level, Range [10]: 18.2 to 31.3 µg/dL | Cortisol pre-stimulation level, Mean ± SD [10]: 17.2 ± 6.6 µg/dL | Cortisol pre-stimulation level, Range [10]: 2.0 to 26.1 µg/dL | Cortisol increase in levels, Mean ± SD [11]: 12.3 ± 3.7 µg/dL | Cortisol increase in levels, Range [11]: 3.8 to 17.8 µg/dL | Cortisol post-stimulation level, Mean ± SD [11]: 24.9 ± 3.9 µg/dL | Cortisol post-stimulation level, Range [11]: 19.4 to 32.1 µg/dL | Cortisol pre-stimulation level, Mean ± SD [11]: 12.5 ± 4.5 µg/dL | Cortisol pre-stimulation level, Range [11]: 6.4 ± 22.2 µg/dL | Cortisol increase in levels, Mean ± SD [12]: 14.0 ± 6.1 µg/dL | Cortisol increase in levels, Range [12]: 3.0 to 22.6 µg/dL | Cortisol post-stimulation level, Mean ± SD [12]: 28.0 ± 4.3 µg/dL | Cortisol post-stimulation level, Range [12]: 20.9 to 36.2 µg/dL | Cortisol pre-stimulation level, Mean ± SD [12]: 14.0 ± 5.0 µg/dL | Cortisol pre-stimulation level, Range [12]: 6.6 to 25.1 µg/dL | Cortisol post-stimulation level, Mean ± SD (Screening, Cohort 2 (6-<12 years), qd, listed as fluocinonide): 28.0 µg/dL | Cortisol increase in levels, Mean ± SD [13]: 15.6 ± 7.0 µg/dL | Cortisol increase in levels, Range [13]: 1.8 to 30.0 µg/dL | Cortisol post-stimulation level, Mean ± SD [13]: 29.9 ± 6.1 µg/dL | Cortisol post-stimulation level, Range [13]: 20.1 to 40.0 µg/dL | Cortisol pre-stimulation level, Mean ± SD [13]: 14.4 ± 5.6 µg/dL | Cortisol pre-stimulation level, Range [13]: 6.1 to 23.4 µg/dL | Cortisol increase in levels, Mean ± SD [14]: 17.4 ± 3.1 µg/dL | Cortisol increase in levels, Range [14]: 11.2 to 23.0 µg/dL | Cortisol post-stimulation level, Mean ± SD [14]: 29.0 ± 3.8 µg/dL | Cortisol post-stimulation level, Range [14]: 22.8 to 37.0 µg/dL | Cortisol pre-stimulation level, Mean ± SD [14]: 11.6 ± 3.6 µg/dL | Cortisol pre-stimulation level, Range [14]: 7.3 to 19.8 µg/dL | Cortisol increase in levels, Mean ± SD [15]: 17.9 ± 4.7 µg/dL | Cortisol increase in levels, Range [15]: 11.4 to 25.0 µg/dL | Cortisol post-stimulation level, Mean ± SD [15]: 29.2 ± 6.1 µg/dL | Cortisol post-stimulation level, Range [15]: 20.5 to 38.8 µg/dL | Cortisol pre-stimulation level, Mean ± SD [15]: 11.3 ± 4.9 µg/dL | Cortisol pre-stimulation level, Range [15]: 6.0 to 20.8 µg/dL | Cortisol increase in levels, Mean ± SD [16]: 16.5 ± 4.7 µg/dL | Cortisol increase in levels, Range [16]: 6.1 to 23.0 µg/dL | Cortisol post-stimulation level, Mean ± SD [16]: 28.3 ± 5.1 µg/dL | Cortisol post-stimulation level, Range [16]: 20.7 to 36.2 µg/dL | Cortisol pre-stimulation level, Mean ± SD [16]: 11.8 ± 4.3 µg/dL | Cortisol pre-stimulation level, Range [16]: 4.7 to 19.6 µg/dL | Suppression of the HPA-axis (administered once daily, patients 3 months to <18 years of age): does not result in suppression of the HPA-axis | HPA-axis suppression (administered topically once or twice daily, pediatric patients with atopic dermatitis): does not result in any significant level of HPA-axis suppression | Suppression of the HPA-axis (administered twice daily): low incidence of suppression of the HPA-axis | Post-stimulation serum cortisol level, single patient (first suppressed patient of Cohort 2 bid, Screening): 32.1 µg/dL | Post-stimulation serum cortisol level, single patient (first suppressed patient of Cohort 2 bid, Week 2): 17.2 µg/dL | Post-stimulation serum cortisol level, single patient (first suppressed patient of Cohort 2 bid, Week 4 (2 weeks post-treatment)): 28.7 µg/dL | Post-stimulation serum cortisol level, single patient (patient of Cohort 3 bid, Screening): 40.0 µg/dL | Post-stimulation serum cortisol level, single patient [17]: 9.1 µg/dL | Pre-stimulation serum cortisol level, single patient [17]: 28.0 µg/dL | Post-stimulation serum cortisol level, single patient (patient of Cohort 3 bid, Week 4): 30.3 µg/dL | Post-stimulation serum cortisol level, single patient (second suppressed patient of Cohort 2 bid, 8 days after the end of treatment): 22.4 µg/dL | Post-stimulation serum cortisol level, single patient (second suppressed patient of Cohort 2 bid, Screening): 20.5 µg/dL | Post-stimulation serum cortisol level, single patient (second suppressed patient of Cohort 2 bid, Week 2): 16.7 µg/dL | Post-stimulation serum cortisol level, single patient (suppressed patient of Cohort 1 bid, Week 2): 17.6 µg/dL | Post-stimulation serum cortisol level, single patient (suppressed patient of Cohort 1 bid, Week 4 (2 weeks post-treatment)): 18.9 µg/dL
